In US20230338391A1, “TREATMENT FOR DEPRESSION” (TAKEDA PHARMACEUTICAL COMPANY LIMITED, priority 2020, published 2023):
Read-outs that look alike come from different tables or passages of the source.

Assays:
[1] = tested on: cynomolgus monkeys; assay: 13-week NHP GLP toxicity study: clinical signs, EEG/EMG telemetry, pathology; type: in vivo, Monkey (Macaca fascicularis)
Protocol: (§1) The appropriate volume of reverse osmosis water was added into a suitable sized container and heated between 70° C. and 90° C. An appropriate amount of MC (METOLOSE SM-100, Shin-Etsu Chemical Co Ltd) was weighed and transferred (while stirring) to the container with heated reverse osmosis water. The solution was cooled down until a clear solution was obtained (an ice bath was used). The solution was stored refrigerated (set to 2-8° C.) until used. Unused reference item/vehicle was discarded when not needed anymore. To make a 0.2 w/v % suspension of COMPOUND A, an appropriate amount of the test item was weighed. A small volume of vehicle was added to slowly wet the test item. The appropriate volume of vehicle was added to reach the final volume and the formulation was homogenized using a homogenizer until a uniform suspension was achieved and stirred for 30 to 59 minutes. The 0.2 w/v % suspension was then diluted with the 0.5 w/v % MC in reverse osmosis water solution to make 0.12, 0.06 and 0.006 w/v % suspensions. However, on Oct. 1, 2015, the 1.2 mg/mL formulation was prepared by dissolving the appropriate amount of COMPOUND A in the vehicle, instead of diluting the 2 mg/mL formulation to reach the appropriate concentration. This deviation had no impact on the study since the appropriate concentration was prepared.
(§2) After suitable acclimation to the dosing procedure, the reference item (0.5% methylcellulose (MC) in reverse osmosis water) was administered once by oral gavage during Phase 1 of the study. The objective of Phase 1 was to confirm the EEG morphologies in all animals before and after dosing procedures. The traces generated during Phase 1 were used for interpretation of Phase 2 data. Beginning 1 day later, the reference item or COMPOUND A was administered once daily by oral gavage for 90 days during Phase 2 as shown in Table 7.
(§3) Clinical signs (ill health, behavioral changes, etc.) were recorded on surviving animals twice daily during all phases of study and monitored continuously for at least 16 hours after the 1st, 3rd, 7th, 14th and 28th dose administration in Phase 2, using digital cameras (to minimize stress for the animals) or using direct observation when needed or during dose administration. Additional clinical observations were performed when deemed necessary.
(§4) EEGs and EMGs were obtained from the animals using telemetry transmitter leads inserted subcutaneously using bipolar derivations (EMG, C4-O2 and Cz-Oz).
(§5) EEG and EMG monitoring was recorded continuously (except during study designated procedures or other procedures such as data backup) from at least 72 hours prior to the first dose of Phase 1 to at least 24 hours after the 28th dose of Phase 2. EEG and EMG monitoring was also recorded continuously (except during study designated procedures or other procedures such as data backup) for a period of at least 36 hours (from at least 12 hours prior to dosing until at least 24 hours post-dosing) once in the 8th week of dosing and once towards the end of the dosing period (13th week of dosing) in Phase 2.
(§6) Using the NeuroScore software (Data Science International), EEGs were analyzed from at least 24 hours prior to the first dose of Phase 1 to at least 24 hours after the 28th dose in Phase 2, and for a period of at least 36 hours (from at least 12 hours prior to dosing until at least 24 hours post-dosing) once in the 8th week of dosing and once towards the end of the dosing period (13th week of dosing) in Phase 2. […] EMGs were used to aid in the interpretation of the EEG data.
(§7) EEGs were reviewed by the Neurologist at the following timepoints: 1-1.5, 2.5-5.5, and 7-7.5 hours following the 1st, 3rd, 7th, 14th and 28th dose administration in Phase 2. The observance of abnormal behaviors/convulsions in individual animals by laboratory personnel also triggered an EEG review for approximately the same time period during which the abnormal behavior was witnessed. […]

[2] = as above; type: in vivo, Monkey (Macaca fascicularis); conditions: cynomolgus monkey, in vivo, oral gavage once daily, 13 weeks, read-out: no-observed-adverse-effect level (NOAEL)
Protocol: as §1, §2, §3, §4, §5, §6, §7

[3] = Population PK modeling and simulation; set-up: species or system human
Protocol: Data processing and graphical visualization was performed using Matlab (version R2019a; The MathWorks, Inc., Natick, Massachusetts, United States).
The Stochastic Approximation of Expectation Maximization (SAEM) algorithm, a stochastic algorithm for calculating the maximum likelihood estimator, was selected as model-estimation method for its ability to accurately estimate population parameters.
Model building and selection was based on the following criteria/procedures: • Evaluation of individual and population parameter estimates and their precision (precision was quantified using the percentage of relative standard error (% RSE)); • Graphical examination of diagnostic and goodness-of-fit plots; • Analysis of correlation matrix of the estimates and condition number; • Reduction in both residual variability and inter-individual variability; and • Reduction in log likelihood (−2LL), Akaike Information Criterion (AIC) and Bayesian Information Criterion (BIC) for all nested models.
The base model was built by using these criteria to compare different structural models (e.g., one-compartment, two-compartment, three-compartment) with different absorption (e.g., zero order, first order) and elimination (e.g., linear, nonlinear) processes. Development of the base model was performed by adding inter-individual variability (IIV) on one structural parameter at a time and applying the set criteria to select the best model. IIV was generally modeled as an exponential term as follows:
A covariate model was then built to further reduce the unexplained inter-individual variability. Development of the covariate model was performed using the forward selection and backward elimination method. In the forward selection step, covariates were tested one at the time. […] In the backward elimination step, covariates were eliminated one at the time and changes in −2LL recorded.
The final model was evaluated using a visual predictive check, a simulation-based method to visually assess concordance of the model-based simulations and observed data. Bootstrap analysis was also performed to determine the precision of the parameter estimates, estimate confidence interval of identified parameters and assess the stability of the model. […]

[4] = final POPPK model, inter-individual variability
[5] = final POPPK model, residual error

SMILES: CC1=CN2CCS(=O)(=O)N=C2C(c2ccc(OC3CCCCC3)cc2)=N1 [COMPOUND A, 9-[4-(Cyclohexyloxy)phenyl]-7-methyl-3,4-dihydropyrazino[2,1-c][1,2,4]thiadiazine 2,2-dioxide]
- qEEG total power ([1]; 0.3 and 3 mg/kg/day, after 2nd and 27th dose): associated with an increase in total EEG power
- clinical signs and EEG ([1]; 0.3 or 3.0 mg/kg/day, males or females): no adverse clinical signs or abnormal EEG changes
- clinical signs ([1]; females, 6.0 mg/kg/day): myoclonic jerks, decreased activity, weakness, and uncoordination were observed
- clinical signs ([1]; females, 10.0 mg/kg/day): salivation, excessive licking, decreased activity, weakness, lying on cage floor, nystagmus, uncoordination, muscle twitches and myoclonic jerks were observed
- generalized seizures (EEG) ([1]; females, 10.0 mg/kg/day): Self-limiting generalized seizures, confirmed by EEG, were observed in two female monkeys
- clinical signs ([1]; males, 10 mg/kg/day): decreased activity, tremors and circling were observed at 10 mg/kg/day but were not considered adverse
- NOAEL at 13 weeks ([2]; female, females): 3 mg/kg/day
- NOAEL at 13 weeks ([2]; male, males): 10 mg/kg/day
- Additive Error, median bootstrap parameter estimate ([3]; bootstrap analysis): 0.34 SD
- CL/F_IIV, median bootstrap parameter estimate ([3]; bootstrap analysis): 61.97 % CV
- KA IIV, median bootstrap parameter estimate ([3]; bootstrap analysis): 97.18 % CV
- Proportional Error, median bootstrap parameter estimate ([3]; bootstrap analysis): 37.72 % CV
- TLag IIV, median bootstrap parameter estimate ([3]; bootstrap analysis): 67.78 % CV
- V/F_IIV, median bootstrap parameter estimate ([3]; bootstrap analysis): 33.27 % CV
- CL/F_IIV, population parameter estimate [3, 4]: 62.53 % CV
- KA IIV, population parameter estimate [3, 4]: 98.99 % CV
- TLag IIV, population parameter estimate [3, 4]: 69.17 % CV
- V/F_IIV, population parameter estimate [3, 4]: 33.77 % CV
- Additive Error, population parameter estimate [3, 5]: 0.35 SD
- Proportional Error, population parameter estimate [3, 5]: 37.56 % CV
